This is an account of results in patent US11952392B2, “Arginase inhibitors and methods of use thereof” (AstraZeneca AB, priority 2018, dated 2024).

This series is described as follows: Gravity vapor sorption (GVS) analysis. The class given is physicochemical.
Where [1] appears, read: at relative humidity (RH) of 80%.

Consider `CC(C)[C@H](N)C(=O)N[C@H]1CN[C@]2(CCCCB(O)OC2=O)C1` [Example 1, (S)-2-amino-N-((3R,5R)-8-hydroxy-6-oxo-7-oxa-1-aza-8-boraspiro[4.7]dodecan-3-yl)-3-methylbutanamide], for which the “RH after which the solid starts to deliquesce (GVS)” value is given as > 80 % RH. The “water absorbed (GVS)” value (at relative humidity (RH) of 70%) is “less than 2%”. For `CC(C)[C@@H]1NC(C)(C)N([C@H]2CN[C@]3(CCCCB(O)OC3=O)C2)C1=O` [Example 2, (3R,5R)-8-hydroxy-3-((S)-4-isopropyl-2,2-dimethyl-5-oxoimidazolidin-1-yl)-7-oxa-1-aza-8-boraspiro[4.7]dodecan-6-one], the “water absorbed (GVS)” value under setting [1] is “less than 2%”.

`CC(C)[C@H](N)C(=O)N[C@H]1CN[C@]2(CCCCB(O)OC2=O)C1` [Example 3, (S)-2-amino-N-((3R,5R)-8-hydroxy-6-oxo-7-oxa-1-aza-8-boraspiro[4.7]dodecan-3-yl)-3-methylbutanamide]: the “water absorbed (GVS)” value under setting [1] is “less than 2%”.
